From US9757327B2, “Abutilon indicum extracts and methods of use” (Avon Products, Inc., priority 2013, dated 2017) come the findings set out here.

The test system of the assay is dorsal forearm skin of healthy female Caucasian subjects. The assay is described as follows: In vivo biopsy (histology after 3 week patch treatment). More on the design: species or system human. To be noted: 3 weeks semi-occlusion patch, 2 mg/cm^2, extract 0.33% active, retinol 0.05% active. Here is the method:
Healthy female Caucasian subjects aged 30-65, with skin type II or III and mild to moderate photo damage, were treated on the dorsal forearm for 3 weeks (3 consecutive rounds of 5×24 hour) under semi-occlusion patches. Test articles including active ingredients, vehicle controls, and retinol were applied in a randomized allocation on 6 sites on each forearm. The application dose was 2 mg/cm^2. After 3 week treatment, a 2 mm punch biopsy was obtained from each treatment site and fixed in 10% buffered formalin. Tissue samples then embedded in paraffin, sectioned (5 μm thickness), and stained for skin markers after re-hydration. […] Retinol at a active concentration of 0.05% was used as a positive control. Retinol use at a 0.05% active concentration in the semi-occlusion patch vehicle formulation yielded a visual score of approximately 0.56 out of a 4 point scale in HE staining (measuring hematoxylin and eosin staining, an indication of viable epidermal thickness and health) with 63.6% of the subjects showing an improvement; a visual score of 0.6 out of a 4 point scale in M-TC staining (Masson's trichrome staining, assessing total mature fiber-forming collagen in the dermis—mainly Collagen I, […] and Collagen V) with 51.6% of the subjects showing an improvement; a visual score of 0.52 out of a 4 point scale for pro-Col (measuring new synthesis of Collagen I by skin fibroblasts in the dermis) with 51.6% of the subjects showing an improvement; and a visual score of 0.57 out of a 4 point scale for HA (measuring level of hyaluronic acid in both dermis and epidermis) with 50% of the subjects showing an improvement.

Each structure is given as a SMILES string.

For the compound `CC1=C(/C=C/C(C)=C/C=C/C(C)=C/CO)C(C)(C)CCC1` [Retinol], the “subjects showing an improvement, HA” value was 50 % of the subjects; the “subjects showing an improvement, HE staining” value was 63.6 % of the subjects; the “subjects showing an improvement, M-TC staining” value was 51.6 % of the subjects; the “subjects showing an improvement, pro-Col” value was 51.6 % of the subjects. For the setting “out of a 4 point scale”, the “visual score for HA (hyaluronic acid in dermis and epidermis)” value is given as 0.57; the “visual score for pro-Col (new synthesis of Collagen I)” value came to 0.52; the “visual score in HE staining (viable epidermal thickness and health)” value is “approximately 0.56”; the “visual score in M-TC staining (total mature fiber-forming collagen in the dermis)” value amounted to 0.6.
